We go through 21 compounds from patent US10899758B2, “Inhibitors of the menin-MLL interaction” (Vitae Pharmaceuticals, LLC, priority 2016, dated 2021).

Where only a bound is given, the exact number is not on record here.

The assay has as its target T1, menin/MLL binding (biotinylated wild-type or mutated menin and MLL-AF9 fusion protein) (Homo sapiens, UniProt O00255).
T1 construct: biotinylated (1) wild-type menin or (2) mutated menin (described in Nature (2012) Vol. 482, pp. 542-548); fused on or other part: Biotin attached chemically (Sulfo-NHS-Biotin); no fused second protein is printed for menin
T1 sequence (O00255 1-459 limits assumed): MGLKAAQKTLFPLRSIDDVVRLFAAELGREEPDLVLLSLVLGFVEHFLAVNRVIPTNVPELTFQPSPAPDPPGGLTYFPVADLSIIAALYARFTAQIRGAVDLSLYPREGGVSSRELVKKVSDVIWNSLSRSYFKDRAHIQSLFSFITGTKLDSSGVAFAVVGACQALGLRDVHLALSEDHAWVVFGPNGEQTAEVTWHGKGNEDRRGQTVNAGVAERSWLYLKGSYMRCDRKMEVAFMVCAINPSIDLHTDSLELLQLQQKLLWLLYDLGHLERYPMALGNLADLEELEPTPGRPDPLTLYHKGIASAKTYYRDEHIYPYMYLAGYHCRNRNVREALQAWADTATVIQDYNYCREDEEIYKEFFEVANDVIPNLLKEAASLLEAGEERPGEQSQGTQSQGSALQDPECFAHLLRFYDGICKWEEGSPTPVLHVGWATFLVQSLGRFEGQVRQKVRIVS
In words: Assay 1 (Binding Assay): AlphaLISA menin/MLL binding. The following applies: 5 nM biotinylated menin, MLL-AF9-FLAG lysate. Here is the method:
Potencies of inhibitor compounds against menin/MLL binding were assessed by AlphaLISA assay using biotinylated (1) wild-type menin or (2) mutated menin (described in Nature (2012) Vol. 482, pp. 542-548) and MLL-AF9 fusion protein bearing a FLAG epitope at its C-terminus. Menin proteins were expressed in E. coli and covalently modified with biotin using EZ-Link™ Sulfo-NHS-Biotin (ThermoFisher Cat. No. 21217) according to manufacturer's protocol. MLL1-1,396 fused to AF91-92 and the C-terminal FLAG peptide was expressed in HEK293 cells and used as a lysate cleared at 21,000×g for 10 min.
Compounds (2 μL of solutions in DMSO) were dispensed in white 96-well half-area plates (Corning Cat. No. 3693) and incubated for 30 min at RT with 5 nM biotinylated menin and appropriate amount of MLL-AF9-FLAG lysate in 40 μL of 50 mM Tris-HCl buffer pH 7.4 containing 5% (v/v) DMSO, 50 mM NaCl, 0.01% (w/v) bovine serum albumin (BSA) and 1 mM DTT. To this incubation mixture, 40 μl of AlphaLISA anti-FLAG acceptor (PerkinElmer Cat. No. AL112C) and streptavidin donor (PerkinElmer Cat. No. 6760002) beads (10 μg/mL each) was added and incubation continued at RT for 60 min. Alpha (amplified luminescent proximity homogeneous assay) signal was measured on an Envision multi-label plate reader at the end of the incubation. All steps were conducted under dim fluorescent light.
These percent inhibition values were regressed against compound concentrations in the assay using four parameter logit non-linear curve fitting (XLFit, IDBS). The IC50 values were derived from the curve fitting as inflection points on the dose-response curves and are set out in Table 14 below.
Background: Bead proximity is the source of the signal in Alpha formats.
Usually IC50 stands for the midpoint of a concentration-inhibition curve. For `CC(C)N(C)C(=O)c1cc(F)ccc1-n1cc(C2CCN(C)CC2)c2ccncc21` [Example 17, 5-fluoro-N-isopropyl-N-methyl-2-(3-(1-methylpiperidin-4-yl)-1H-pyrrolo[2,3-c]pyridin-1-yl)benzamide], the IC50 lay within 0.1 to 1 µM. With `CC(C)N(C)C(=O)c1cc(F)ccc1-n1cc([C@H]2CC[C@@H](N3CC(CO)C3)CC2)c2ccncc21` [Example 99, 5-fluoro-2-(3-(cis-4-(3-(hydroxymethyl)azetidin-1-yl)cyclohexyl)-1H-pyrrolo[2,3-c]pyridin-1-yl)-N-isopropyl-N-methylbenzamide], the concentration for half-maximal inhibition (IC50) lay in the range of 0.1 to 1 µM.

For the compound `CC(C)N(C)C(=O)c1cc(F)ccc1-n1cc([C@H]2CC[C@H](N3CCC(C(=O)O)CC3)CC2)c2ccncc21` [Example 119, 1-(trans-4-(1-(4-fluoro-2-(isopropyl(methyl)carbamoyl)phenyl)-1H-pyrrolo[2,3-c]pyridin-3-yl)cyclohexyl)piperidine-4-carboxylic acid], the IC50 lay in the range of 0.1 to 1 µM. `CC(C)N(C(=O)c1cc(F)ccc1-n1cc(C2CCC(N3CCC4(CC(NS(C)(=O)=O)C4)C3)CC2)c2ccncc21)C(C)C` (single isomer, unassigned) [Example 139, 5-fluoro-N,N-diisopropyl-2-(3-(4-(2-(methylsulfonamido)-6-azaspiro[3.4]octan-6-yl)cyclohexyl)-1H-pyrrolo[2,3-c]pyridin-1-yl)benzamide]: the IC50 is less than 0.1 µM. Regarding `CC(C)N(C)C(=O)c1cc(F)ccc1-n1c(=O)n(C2CCN(Cc3ccc(F)cc3)CC2)c2ccncc21` [Example 83, 5-fluoro-2-(1-(1-(4-fluorobenzyl)piperidin-4-yl)-2-oxo-1,2-dihydro-3H-imidazo[4,5-c]pyridin-3-yl)-N-isopropyl-N-methylbenzamide], the IC50 is 0.1 to 1 µM. Next, `Fc1ccc(-n2cc(C3CCN(CC4CCOCC4)CC3)c3ncncc32)cc1` [Example 65, 5-(4-fluorophenyl)-7-(1-((tetrahydro-2H-pyran-4-yl)methyl)piperidin-4-yl)-5H-pyrrolo[3,2-d]pyrimidine]: not below 1 µM. For the compound `O=c1[nH]c2ccc(CN3CCC(c4cn(-c5ccc(F)cc5)c5cncnc45)CC3)cc2[nH]1` [Example 67, 5-((4-(5-(4-fluorophenyl)-5H-pyrrolo[3,2-d]pyrimidin-7-yl)piperidin-1-yl)methyl)-1H-benzo[d]imidazol-2(3H)-one], the 50% inhibitory concentration (IC50) is not below 1 µM. `CC(C)N(C)C(=O)c1cc(F)ccc1-n1c(=S)n(C2CCCN(Cc3ccc4[nH]c(=O)[nH]c4c3)C2)c2ccncc21` (stereo not drawn) [Example 135, 5-fluoro-N-isopropyl-N-methyl-2-(1-(1-((2-oxo-2,3-dihydro-1H-benzo[d]imidazol-5-yl)methyl)piperidin-3-yl)-2-thioxo-1,2-dihydro-3H-imidazo[4,5-c]pyridin-3-yl)benzamide]: the half-inhibitory concentration (IC50) was in the range of 0.1 to 1 µM. Next, `CC(C)N(C)C(=O)c1cc(F)ccc1-n1cc(C2CCN(CCc3cccc(C#N)c3)CC2)c2ccncc21` [Example 25, 2-(3-(1-(3-cyanophenethyl)piperidin-4-yl)-1H-pyrrolo[2,3-c]pyridin-1-yl)-5-fluoro-N-isopropyl-N-methylbenzamide]: less than 0.1 µM; `CC(C)N(C)C(=O)c1cc(F)ccc1-n1cc(C2CCN(c3ccccn3)CC2)c2ccncc21` [Example 94, 5-fluoro-N-isopropyl-N-methyl-2-(3-(1-(pyridin-2-yl)piperidin-4-yl)-1H-pyrrolo[2,3-c]pyridin-1-yl)benzamide]: less than 0.1 µM. On to `CC(C)N(C)C(=O)c1cc(F)ccc1-n1cc(C2CCCN(C(=O)OC(C)(C)C)C2)c2ccncc21` (stereo not drawn) [Int. 2, tert-butyl 3-(1-(4-fluoro-2-(isopropyl(methyl)carbamoyl)phenyl)-1H-pyrrolo[2,3-c]pyridin-3-yl)piperidine-1-carboxylate], for which the half-inhibitory concentration (IC50) is not below 1 µM.

`Cc1c(CN2CCC(c3cn(-c4cccc(F)c4)c4cncnc34)CC2)ccc2[nH]c(C#N)cc12` [Example 71, 5-((4-(5-(3-fluorophenyl)-5H-pyrrolo[3,2-d]pyrimidin-7-yl)piperidin-1-yl)methyl)-4-methyl-1H-indole-2-carbonitrile] came in with an IC50 not below 1 µM. The compound `Cc1c(CN2CCC(c3cn(-c4ccc(F)cc4)c4cncnc34)CC2)ccc2[nH]c(C#N)cc12` [Example 66, 5-((4-(5-(4-fluorophenyl)-5H-pyrrolo[3,2-d]pyrimidin-7-yl)piperidin-1-yl)methyl)-4-methyl-1H-indole-2-carbonitrile] came in with an IC50 of 0.1 to 1 µM. `CC(C)N(C)C(=O)c1cc(F)ccc1-n1cc(C2CCN(C(=O)OC(C)(C)C)CC2)c2ccncc21` [Int. 1, tert-butyl 4-(1-(4-fluoro-2-(isopropyl(methyl)carbamoyl)phenyl)-1H-pyrrolo[2,3-c]pyridin-3-yl)piperidine-1-carboxylate] registered an IC50 of 0.1 to 1 µM. `CC(C)N(C(=O)c1cc(F)ccc1-n1cc(C2CCCN(C(=O)OC(C)(C)C)C2)c2ccncc21)C(C)C` (stereo not drawn) [Int. 10, tert-butyl 3-(1-(2-(diisopropylcarbamoyl)-4-fluorophenyl)-1H-pyrrolo[2,3-c]pyridin-3-yl)piperidine-1-carboxylate] showed an IC50 not below 1 µM.

The compound `CC(C)N(C)C(=O)c1cc(F)ccc1-n1cc([C@H]2CC[C@@H](N3CCOCC3)CC2)c2ccncc21` [Example 118, 5-fluoro-N-isopropyl-N-methyl-2-(3-(cis-4-morpholinocyclohexyl)-1H-pyrrolo[2,3-c]pyridin-1-yl)benzamide] yielded a half-maximal inhibitory concentration (IC50) of less than 0.1 µM. Consider `CC(C)N(C)C(=O)c1cc(F)ccc1-n1cc([C@H]2CC[C@@H](N3CCN(CCO)CC3)CC2)c2ccncc21` [Example 115, 5-fluoro-2-(3-(cis-4-(4-(2-hydroxyethyl)piperazin-1-yl)cyclohexyl)-1H-pyrrolo[2,3-c]pyridin-1-yl)-N-isopropyl-N-methylbenzamide], for which the IC50 fell in the range of 0.1 to 1 µM.

For the compound `CC(C)N(C)C(=O)c1cc(F)ccc1-n1cc([C@H]2CC[C@@H](N3CCC[C@H]3CO)CC2)c2ccncc21` [Example 97, 5-fluoro-2-(3-(cis-4-((S)-2-(hydroxymethyl)pyrrolidin-1-yl)cyclohexyl)-1H-pyrrolo[2,3-c]pyridin-1-yl)-N-isopropyl-N-methylbenzamide], the IC50 is less than 0.1 µM. The compound `CC(C)N(C)C(=O)c1cc(F)ccc1-n1cc(C2CCN(C[C@H]3C[C@@H](NS(C)(=O)=O)C3)CC2)c2ccncc21` (stereo in doubt) [Example 92, 5-fluoro-N-isopropyl-N-methyl-2-(3-(1-((cis-3-(methylsulfonamido)cyclobutyl)methyl)piperidin-4-yl)-1H-pyrrolo[2,3-c]pyridin-1-yl)benzamide] showed an IC50 of less than 0.1 µM. Turning to `CC(C)N(C)C(=O)c1cc(F)ccc1-n1cc(C2CCCNCC2)c2ccncc21` (stereo not drawn) [Example 41A, 2-(3-(azepan-4-yl)-1H-pyrrolo[2,3-c]pyridin-1-yl)-5-fluoro-N-isopropyl-N-methylbenzamide], the IC50 lay in the range of 0.1 to 1 µM. As for `CC(C)N(C)C(=O)c1cc(F)ccc1-n1cc(C2CCC(Oc3ccccc3)CC2)c2ccncc21` (stereo not drawn) [Example 59, 5-fluoro-N-isopropyl-N-methyl-2-(3-(4-phenoxycyclohexyl)-1H-pyrrolo[2,3-c]pyridin-1-yl)benzamide], the 50% inhibitory concentration (IC50) lay in the range of 0.1 to 1 µM.
